Data on 11 compounds can be found in patent US20210347727A1 (BLADE THERAPEUTICS, INC., priority 2017, published 2021).

One test deals with T1, Human Calpain 1/NS1 (Homo sapiens, UniProt P07384).
T1 sequence (P07384 1-714): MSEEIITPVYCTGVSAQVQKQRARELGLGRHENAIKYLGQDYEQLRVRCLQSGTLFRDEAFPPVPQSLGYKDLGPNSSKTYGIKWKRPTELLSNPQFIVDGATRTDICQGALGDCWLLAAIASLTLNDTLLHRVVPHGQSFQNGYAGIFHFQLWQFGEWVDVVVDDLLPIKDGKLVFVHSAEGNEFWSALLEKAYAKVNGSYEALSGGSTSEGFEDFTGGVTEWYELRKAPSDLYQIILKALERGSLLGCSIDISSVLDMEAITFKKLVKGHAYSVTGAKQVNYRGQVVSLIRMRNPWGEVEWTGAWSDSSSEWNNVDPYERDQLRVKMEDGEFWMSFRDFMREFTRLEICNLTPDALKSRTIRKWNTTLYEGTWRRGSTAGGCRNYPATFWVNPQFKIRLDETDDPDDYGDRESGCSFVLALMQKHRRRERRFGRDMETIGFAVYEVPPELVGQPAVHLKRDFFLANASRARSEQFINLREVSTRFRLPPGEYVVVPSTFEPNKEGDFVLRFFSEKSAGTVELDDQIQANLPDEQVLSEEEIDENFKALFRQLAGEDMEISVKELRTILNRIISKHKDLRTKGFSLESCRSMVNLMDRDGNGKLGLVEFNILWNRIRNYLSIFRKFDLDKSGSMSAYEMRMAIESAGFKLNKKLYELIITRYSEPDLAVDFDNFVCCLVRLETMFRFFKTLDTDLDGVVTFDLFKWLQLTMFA
T1 sequence (P04632 1-268 partner): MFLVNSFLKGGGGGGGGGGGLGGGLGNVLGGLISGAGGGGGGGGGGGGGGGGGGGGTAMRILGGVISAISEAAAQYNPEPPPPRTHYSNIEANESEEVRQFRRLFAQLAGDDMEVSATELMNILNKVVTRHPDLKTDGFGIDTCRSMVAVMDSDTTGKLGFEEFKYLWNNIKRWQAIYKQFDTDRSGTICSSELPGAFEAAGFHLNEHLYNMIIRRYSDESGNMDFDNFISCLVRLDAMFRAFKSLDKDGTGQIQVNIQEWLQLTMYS
Description: Biochemical inhibition of calpain 1, continuous fluorescence (FRET substrate) assay. Particulars: mean; read-out: Human Calpain 1/NS1 IC50 (nM)_MEAN. On the procedure: (§1) Calpain 1, 2, and 9 activity and inhibition thereof are assessed by means of a continuous fluorescence assay. The SensoLyte 520 Calpain substrate (Anaspec Inc) is optimized for detecting calpain activity. This substrate contains a novel internally quenched 5-FAM/QXL™ 520 FRET pair. Calpains 1, 2, and 9 cleave the FRET substrate into two separate fragments resulting in an increase of 5-FAM fluorescence that is proportional to calpain activity.
(§2) Assays are typically setup in black 384-well plates using automated liquid handling as follows. Calpain assay base buffer typically contains 50 mM Tris, pH 7.5, 100 mM NaCl and 1 mM DTT. Inhibitors are serially diluted in DMSO and used to setup 2× mixtures with calpains in the aforementioned buffer. After incubation at ambient temperature (25 C), the reaction is initiated by adding a 2× mix of the fluorescent peptide substrate and CaCl2 (required for in-situ calpain activation) in the same buffer. Reaction progress curve data are typically collected for 10 min using excitation/emission wavelengths of 490 nm/520 nm on SpectraMax i3x or the FLIPR-Tetra plate readers (Molecular Devices Inc). Reaction rates were calculated from progress curve slopes typically over 1-5 min. Dose response curves (rate vs. log inhibitor concentration) were typically fit to a 4-parameter logistic function to extract IC50 values.

The next test has as its target T2, Human Calpain 2/NS1 (Homo sapiens, UniProt P17655).
T2 sequence (P17655 1-700): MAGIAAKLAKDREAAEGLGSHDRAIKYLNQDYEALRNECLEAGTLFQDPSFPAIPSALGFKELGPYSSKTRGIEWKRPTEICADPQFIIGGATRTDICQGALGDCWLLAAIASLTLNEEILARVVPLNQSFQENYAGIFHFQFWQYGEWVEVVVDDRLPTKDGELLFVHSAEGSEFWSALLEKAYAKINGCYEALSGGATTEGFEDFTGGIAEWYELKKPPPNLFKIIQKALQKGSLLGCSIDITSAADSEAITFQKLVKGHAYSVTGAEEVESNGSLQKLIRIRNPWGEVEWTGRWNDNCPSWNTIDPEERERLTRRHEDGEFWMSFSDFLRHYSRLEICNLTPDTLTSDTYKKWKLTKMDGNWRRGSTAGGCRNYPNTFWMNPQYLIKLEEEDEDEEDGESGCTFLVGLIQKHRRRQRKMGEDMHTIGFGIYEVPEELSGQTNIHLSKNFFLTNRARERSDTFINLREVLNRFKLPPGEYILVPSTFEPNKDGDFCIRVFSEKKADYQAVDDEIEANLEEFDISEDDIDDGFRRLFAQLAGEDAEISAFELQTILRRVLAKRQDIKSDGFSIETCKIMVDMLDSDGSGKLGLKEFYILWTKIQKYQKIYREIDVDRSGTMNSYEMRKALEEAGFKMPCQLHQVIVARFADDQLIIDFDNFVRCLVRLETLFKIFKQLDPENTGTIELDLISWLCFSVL
T2 sequence (P04632 1-268 partner): T1 sequence (P04632 1-268 partner)
Kind of test: Biochemical inhibition of calpain 2, continuous fluorescence (FRET substrate) assay. Particulars: mean; read-out: Human Calpain 2/NS1 1C50 [sic] (nM)_MEAN. Here is the method:
as §1, §2

For a further test, the target named is T3, Human Calpain 9/NS1 (Homo sapiens, UniProt O14815).
T3 sequence (O14815 1-690): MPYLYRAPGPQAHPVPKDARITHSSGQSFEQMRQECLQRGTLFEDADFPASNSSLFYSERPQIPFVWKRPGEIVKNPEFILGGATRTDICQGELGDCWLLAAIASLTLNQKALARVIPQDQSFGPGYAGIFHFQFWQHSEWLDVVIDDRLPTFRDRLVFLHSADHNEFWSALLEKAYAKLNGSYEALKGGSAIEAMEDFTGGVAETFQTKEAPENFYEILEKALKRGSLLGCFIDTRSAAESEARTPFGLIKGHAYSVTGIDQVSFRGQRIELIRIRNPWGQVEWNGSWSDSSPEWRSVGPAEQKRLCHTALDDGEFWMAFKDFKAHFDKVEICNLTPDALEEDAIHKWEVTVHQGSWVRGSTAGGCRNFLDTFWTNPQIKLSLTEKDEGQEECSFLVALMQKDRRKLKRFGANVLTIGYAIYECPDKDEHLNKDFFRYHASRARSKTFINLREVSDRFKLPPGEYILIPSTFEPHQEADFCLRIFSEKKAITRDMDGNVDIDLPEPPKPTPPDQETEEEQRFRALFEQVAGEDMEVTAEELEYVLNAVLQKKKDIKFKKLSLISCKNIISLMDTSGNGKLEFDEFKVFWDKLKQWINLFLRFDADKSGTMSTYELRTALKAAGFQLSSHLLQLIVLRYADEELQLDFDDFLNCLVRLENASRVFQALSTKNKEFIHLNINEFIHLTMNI
T3 sequence (P04632 1-268 partner): T1 sequence (P04632 1-268 partner)
Description: Biochemical inhibition of calpain 9, continuous fluorescence (FRET substrate) assay. As to conditions: mean; read-out: Human Calpain 9/NS1 IC50 (nM)_MEAN. Here is the method: as §1, §2

For test [1], the system named is calpain activity in SH-SY5Y cells (Spectrin). Description: SH-SY5Y Spectrin cellular calpain inhibition. The class given is cell-based.
The subject of test [2] is calpain activity in SH-SY5Y cells. Kind of test: SH-SY5Y cellular calpain activity, Suc-LLVY-AMC fluorescence assay. The class given is cell-based. As to conditions: Suc-LLVY-AMC substrate. On the procedure: Calpain activity in SH-SY5Y cells and inhibition thereof were assessed by means of a homogeneous, fluorescence assay that uses the cell-permeable and pro-fluorescent calpain substrate Suc-LLVY-AMC (Sigma-Aldrich Inc). Upon intracellular calpain cleavage of Suc-LLVY-AMC, fluorescent amino-methyl-coumarin (AMC) is released into the media resulting in a continuous increase in fluorescence signal that is proportional to intra-cellular calpain activity.
Assays were typically setup by seeding SH-SY5Y cells in black 384-well plates at 40 k/per well in RPMI-1640 containing 1% serum followed by 37 C overnight incubation. Next morning, cells were pre-incubated for 30 min with serially diluted compounds followed by addition of 100 uM of Suc-LLVY-AMC substrate. The continuous increase in AMC fluorescence is monitored using a FLIPR, Tetra plate reader (Molecular Devices Inc) and slopes measured to report calpain activity. Dose response curves (slopes vs. log inhibitor concentration) were typically fit to a 4-parameter logistic function to extract IC50 values.

On to `NC(=O)C(=O)[C@H](Cc1ccccc1)NC(=O)c1c(F)cccc1F` [Compound 15, (S)—N-(4-AMINO-3,4-DIOXO-1-PHENYLBUTAN-2-YL)-2,6-DIFLUOROBENZAMIDE], for which the IC50 on Human Calpain 1/NS1 was below 3000 nM; at Human Calpain 2/NS1 it was below 3000 nM; at Human Calpain 9/NS1, below 3000 nM; in test [1], 10 to 25 µM; in test [2], 10 to 25 µM.

On to `NC(=O)C(=O)[C@H](Cc1ccccc1)NC(=O)c1c(F)cccc1C(F)(F)F` [Compound 16, (S)—N-(4-AMINO-3,4-DIOXO-1-PHENYLBUTAIN-2-YL)-2-FLUORO-6-(TRIFLUOROMETHYL)BENZAMIDE], for which the IC50 is below 3000 nM at Human Calpain 1/NS1; below 3000 nM at Human Calpain 2/NS1; below 3000 nM at Human Calpain 9/NS1; 10 to 25 µM in test [1]; above 25 µM in test [2].

Turning to `NC(=O)C(=O)[C@H](Cc1ccccc1)NC(=O)c1cc(Cl)ccc1Cl` [Compound 22, (S)—N-(4-AMINO-3,4-DIOXO-1-PHENYLBUTAN-2-YL)-2,5-DICHLOROBENZAMIDE], the IC50 was below 3000 nM on Human Calpain 1/NS1; below 3000 nM at Human Calpain 2/NS1; below 3000 nM at Human Calpain 9/NS1; 10 to 25 µM in test [1]; below 10 µM in test [2].

`NC(=O)C(=O)[C@H](Cc1ccccc1)NC(=O)c1c(F)cccc1I` [Compound 27, (S)—N-(4-AMINO-3,4-DIOXO-1-PHENYLBUTAN-2-YL)-2-FLUORO-6-IODOBENZAMIDE]: the IC50 on Human Calpain 1/NS1 was below 3000 nM; at Human Calpain 2/NS1 it was below 3000 nM; on Human Calpain 9/NS1 it was below 3000 nM; in test [1], 10 to 25 µM; in test [2] it was below 10 µM.

As to `NC(=O)C(=O)[C@H](Cc1ccccc1)NC(=O)c1ccc(F)cc1` [Compound 28, (S)—N-(4-AMINO-3,4-DIOXO-1-PHENYLBUTAN-2-YL)-4-FLUOROBENZAMIDE], the IC50 at Human Calpain 1/NS1 was above 10000 nM; at Human Calpain 2/NS1, 3000 to 10000 nM; at Human Calpain 9/NS1, 3000 to 10000 nM; in test [1], above 25 µM; in test [2], below 10 µM.

As to `COc1ccc(F)c(C(=O)N[C@@H](Cc2ccccc2)C(=O)C(N)=O)c1Cl` [Compound 29, (S)—N-(4-AMINO-3,4-DIOXO-1-PHENYLBUTAN-2-YL)-2-CHLORO-6-FLUORO-3-METHOXYBENZAMIDE], the IC50 was below 3000 nM at Human Calpain 1/NS1; below 3000 nM at Human Calpain 2/NS1; below 3000 nM on Human Calpain 9/NS1; 10 to 25 µM in test [1]; below 10 µM in test [2].

For `Cc1ccc(F)c(C(=O)N[C@@H](Cc2ccccc2)C(=O)C(N)=O)c1Cl` [Compound 30, (S)—N-(4-AMINO-3,4-DIOXO-1-PHENYLBUTAN-2-YL)-2-CHLORO-6-FLUORO-3-METHYLBENZAMIDE], the IC50 on Human Calpain 1/NS1 was below 3000 nM; at Human Calpain 2/NS1 it was below 3000 nM; at Human Calpain 9/NS1, below 3000 nM; in test [1], 10 to 25 µM; in test [2] it was below 10 µM.

As to `Cc1ccc(Cl)c(C(=O)N[C@@H](Cc2ccccc2)C(=O)C(N)=O)c1F` [Compound 31, (S)—N-(4-AMINO-3,4-DIOXO-1-PHENYLBUTAN-2-YL)-6-CHLORO-2-FLUORO-3-METHYLBENZAMIDE], the IC50 at Human Calpain 1/NS1 is below 3000 nM; at Human Calpain 2/NS1, below 3000 nM; on Human Calpain 9/NS1 it was below 3000 nM; in test [1] it was below 10 µM; in test [2], below 10 µM.

`NC(=O)C(=O)[C@H](Cc1ccccc1)NC(=O)c1c(C(F)(F)F)ccc(Cl)c1F` [Compound 32, (S)—N-(4-AMINO-3,4-DIOXO-1-PHENYLBUTAN-2-YL)-3-CHLORO-2-FLUORO-6-(TRIFLUOROMETHYL)BENZAMIDE]: the IC50 on Human Calpain 1/NS1 was below 3000 nM; on Human Calpain 2/NS1, below 3000 nM; on Human Calpain 9/NS1 it was below 3000 nM; in test [1] it was below 10 µM; in test [2] it was below 10 µM.

`NC(=O)C(=O)[C@H](Cc1ccccc1)NC(=O)c1cc(F)c(Cl)cc1Cl` [Compound 33, (S)—N-(4-AMINO-3,4-DIOXO-1-PHENYLBUTAN-2-YL)-2,4-DICHLORO-5-FLUOROBENZAMIDE]: the IC50 at Human Calpain 1/NS1 is below 3000 nM; at Human Calpain 2/NS1, below 3000 nM; at Human Calpain 9/NS1, below 3000 nM; in test [1], below 10 µM; in test [2], below 10 µM.

For the compound `NC(=O)C(=O)[C@H](Cc1ccccc1)NC(=O)c1cc(Br)ccc1Cl` [Compound 34, (S)—N-(4-AMINO-3,4-DIOXO-1-PHENYLBUTAN-2-YL)-5-BROMO-2-CHLOROBENZAMIDE], the IC50 on Human Calpain 1/NS1 is below 3000 nM; at Human Calpain 2/NS1 it was below 3000 nM; at Human Calpain 9/NS1, below 3000 nM; in test [1] it was below 10 µM; in test [2], below 10 µM.
